From PubChem BioAssay (NCI)
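A five-concentration, 48-hour dose response in 96-well plates underlies each endpoint, interpolated linearly between surrounding concentrations. Abbreviation: GI50, concentration required for 50% inhibition of growth. TGI: total growth inhibition.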

Legend:
Test in all cases: inhibition of tumour cell growth, NCI panel, 48 h
HCT-15 colon = tested on: HCT-15 colon
MDA-MB-435 = tested on: MDA-MB-435
NCI-H522 lung = tested on: NCI-H522 lung
ACHN renal = tested on: ACHN renal
RPMI-8226 leukemia = tested on: RPMI-8226 leukemia
NCI-H226 lung = tested on: NCI-H226 lung
OVCAR-8 ovarian = tested on: OVCAR-8 ovarian
LOX IMVI melanoma = tested on: LOX IMVI melanoma
SK-MEL-5 melanoma = tested on: SK-MEL-5 melanoma
MALME-3M melanoma = tested on: MALME-3M melanoma

| SMILES | GI50 (HCT-15 colon) [µM] | TGI (HCT-15 colon) [µM] | GI50 (MDA-MB-435) [µM] | TGI (MDA-MB-435) [µM] | GI50 (NCI-H522 lung) [µM] | TGI (NCI-H522 lung) [µM] | GI50 (ACHN renal) [µM] | TGI (ACHN renal) [µM] | GI50 (RPMI-8226 leukemia) [µM] | TGI (RPMI-8226 leukemia) [µM] | GI50 (NCI-H226 lung) [µM] | TGI (NCI-H226 lung) [µM] | GI50 (OVCAR-8 ovarian) [µM] | TGI (OVCAR-8 ovarian) [µM] | GI50 (LOX IMVI melanoma) [µM] | TGI (LOX IMVI melanoma) [µM] | GI50 (SK-MEL-5 melanoma) [µM] | TGI (SK-MEL-5 melanoma) [µM] | GI50 (MALME-3M melanoma) [µM] | TGI (MALME-3M melanoma) [µM] |
| --- | --- | --- | --- | --- | --- | --- | --- | --- | --- | --- | --- | --- | --- | --- | --- | --- | --- | --- | --- | --- |
| CS(=O)(=O)CCn1c(=O)c(Oc2ccc(F)cc2F)cc2cnc(NC3CCOCC3)nc21 | > 25 | > 25 | > 25 | > 25 | > 25 | > 25 | > 25 | > 25 | > 25 | > 25 | > 25 | > 25 | > 25 | > 25 | > 25 | > 25 | > 25 | > 25 | > 25 | > 25 |
| CC(O)(CNS(=O)(=O)c1ccccc1)c1ccccc1 (stereo unspecified) |  | > 100 |  | > 100 |  | > 100 |  | > 100 |  | > 100 |  | > 100 |  | > 100 |  | > 100 |  | > 100 |  | > 100 |
| O=S(=O)(O)c1cc(N=Nc2cc(S(=O)(=O)O)c3cccnc3c2O)ccc1/C=C/c1ccc(N=Nc2cc(S(=O)(=O)O)c3cccnc3c2O)cc1S(=O)(=O)O |  | > 100 |  | > 100 |  | > 100 |  | > 100 |  | > 100 |  | > 100 |  | > 100 |  | > 100 |  | > 100 |  | > 100 |
| COc1ccc(-c2nnc(N3CCN(C(=O)CN4CCN(c5ccc(Cl)cc5)CC4)CC3)nc2-c2ccc(OC)cc2)cc1 | 15.8 | > 100 | 66.1 | > 100 | 22.4 | > 100 | 22.9 | > 100 | 5.19 | > 100 | 46.8 | > 100 | 35.8 | > 100 | 15.6 | > 100 | 7.91 | > 100 | 21.5 | > 100 |
| CN(C)CC1(Cc2ccccc2)CCC(Cc2ccccc2)C1=O (stereo unspecified) |  | 13.3 |  | 23.8 |  | 7.59 |  | 29.7 |  | 6.84 |  | 37.9 |  | 18.2 |  | 15.7 |  | 27.4 |  | 27.2 |
| C=C1CC2(CCCC3(CC(=C)C(=O)O3)C2(C)C)OC1=O (stereo unspecified) |  | 1.99 |  | 10.1 |  | 3.7 |  | 2.4 |  | 3.57 |  | 6.57 |  | 7.55 |  | 3.77 |  | 31.8 |  | 3.61 |
| O=S(=O)(NCCNc1cc(-c2cn(-c3ccccc3)nc2-c2cccc(O)c2)ccn1)c1ccc(Cl)cc1 | 2.14 | 6.42 | 2.86 | 10.1 | 2.16 | 5.79 | 2.63 | 10.3 | 2.59 | 7.75 | 4.02 | 21.2 | 3.72 | 22.6 | 1.76 | 3.56 | 2.02 | 4 | 2.16 | 5.47 |
| CC(C)(C)OC(=O)CN1CCc2c(sc3ncnc(N/N=C/c4cccc5ccccc45)c23)C1 | 2.2 | 9.57 | 2.1 | 9.83 | 2.16 | 12.4 | 1.59 | 7.5 | 1.05 | 4.22 | 4.28 | 12.8 | 2.58 | > 33.3 | 1.72 | 5.93 | 4.08 | 8.28 | 3.51 | 8.69 |
| Cc1cc(C)n(C(=O)c2nn(-c3ccc(Cl)cc3)cc2O)n1 | 3.53 | > 100 | 3.94 | > 100 | 7.37 | 50.7 | 3.77 | > 100 | 3.34 | 17 | 4.66 | 98.9 | 5.96 | > 100 | 3.94 | > 100 | 6.76 | 23.3 | 4.59 | 57.6 |
| C/C1=C/C(=O)O[C@@H]2C[C@@H](CC[C@H](C)/C=C\C=C\CC1)O[C@@](OCCc1ccccc1)([C@@H]1CSC(=O)N1)C2 | 0.09 | > 17.5 | 0.324 | 6.12 | 0.0581 | 2.47 | 0.0501 | > 17.5 | 3.28 | > 17.5 | 0.0985 | > 17.5 | 1.11 | > 17.5 | 0.0316 |  | 0.226 | > 6.42 | 0.0694 | 0.943 |
| O=[N+]([O-])c1ccc(/C=C(/c2ccc([N+](=O)[O-])o2)S(=O)(=O)c2ccccc2)o1 |  | 26 |  | 29 |  | 4.21 |  | 8.69 |  | 0.483 |  | 3.65 |  | 18.3 |  |  |  | 24.4 |  | 7.45 |
| COc1cc2cc(Oc3ccc(NC(=O)Nc4ccc(Cl)c(C(F)(F)F)c4)cc3)c(C)nc2cc1OC | 1.15 | 4.86 | 1.03 | 4.71 | 0.773 | 2.65 | 1.07 | 4 | 0.635 | 1.65 | 1.27 | 5.01 | 1.04 | 4.55 | 1.22 | 4.16 | 0.793 | 2.17 | 1.33 | 5.71 |
| CN1CCN(CCNc2ccc(CO)c3sc4ccccc4c(=O)c23)CC1 |  | 18 | 1.98 | 4.51 |  | 8.89 |  | 26.7 |  | 23.4 |  | 13 |  | 23.5 | 2.59 | 8.27 |  | 9.88 |  | 12 |
| COc1ccc2c(c1)cn1c3ccc(O)cc3[nH]c(=O)c21 | 0.111 | 2.21 | 0.0252 | 0.171 | 0.0442 | 1.24 | 0.112 | 1.99 | 0.306 | 1.93 | 0.181 | 6.92 | 0.428 | 2.82 | 0.072 | 1.96 | 0.0362 | 1.32 |  |  |
| O=C(Nc1cccc(O)c1)c1cccc(NC2=C(Cl)C(=O)N(Cc3ccccc3)C2=O)c1 | 16.2 | 30.1 | 2.59 | 11.4 | 3.08 | 17.4 | 17.9 | 33.1 | 1.49 | 27 | 18.7 | 44.4 | 13.1 | 43.5 | 11.1 | 23.1 | 6.09 | 20.1 |  |  |
| CC1SC(c2c(Cl)cccc2Cl)N(NC(=O)C(O)c2ccccc2)C1=O (stereo unspecified) | 47.3 | > 100 | 43.2 | > 100 | 60.9 | > 100 | 92.2 | > 100 | 35.8 | > 100 | > 100 | > 100 | > 100 | > 100 | 60.7 | > 100 | 68.4 | > 100 |  |  |
| CCN(CC)CCOc1ccc2c(c1)C(=O)c1cc(OCCN(CC)CC)ccc1-2 | 12.1 | 44.6 | 12.9 | 27.7 | 12.4 | 27.5 | 5.92 | 46.5 |  |  | 11.7 | 34.2 | 8 | 54 | 4.31 | 16.7 | 12.2 | 24.6 | 15.6 | 33.6 |
| COc1cc(NCC2COc3c(ccc(OC)c3OC)C2=O)c([N+](=O)[O-])cc1OC (stereo unspecified) |  | > 100 |  | > 100 |  | > 100 |  | > 100 |  | > 100 |  | > 100 |  | > 100 |  | > 100 |  | > 100 |  |  |
| CO[C@@]12C[C@H]3[C@@H]([C@@H](O)[C@@H](OC(=O)/C=C/c4ccccc4)[C@@]4(O)C(C)(C)CCC[C@]34C)[C@@H](C)C1=CC(=O)O2 | 4.51 | 19.2 | 4.85 | 28.2 | 35.1 | > 100 | 4.16 | 17.8 | 3.58 | 20.8 | 4.76 | 18.8 | 5.24 | 25.6 | 4.14 | 15.6 | 4.55 | 18.3 |  |  |
| Cc1ccc2c(c1)O/C(=C\c1ccc([N+](=O)[O-])o1)C2=O | 0.393 | 1.54 | 1.87 | 4.42 | 0.531 | 1.86 | 1.19 | 2.53 | 0.447 | 2.54 |  |  | 1.4 | 6.57 | 1.47 | 3.1 | 1.61 | 3.04 | 2.42 | 4.6 |
| COc1ccc(/C=C(/C)[N+](=O)[O-])cc1 |  | 7.36 |  | 4.16 |  | 1.81 |  | 3.97 |  | 3.75 |  | 39.7 |  | 5.75 |  |  |  | 5.92 |  | 4.59 |
